From patent US20230365589A1, “NOVEL AMINE DERIVATIVES” (Sumitomo Pharma Co., Ltd., priority 2020, published 2023) come the findings set out here.

Holding throughout (assay type): biochemical
Assay [1] concerns the target T1, DYRK3 (Homo sapiens, UniProt O43781).
T1 construct: purchased Carna Biosciences, Inc. 04-133
T1 sequence (O43781 1-568 isoform O43781-2): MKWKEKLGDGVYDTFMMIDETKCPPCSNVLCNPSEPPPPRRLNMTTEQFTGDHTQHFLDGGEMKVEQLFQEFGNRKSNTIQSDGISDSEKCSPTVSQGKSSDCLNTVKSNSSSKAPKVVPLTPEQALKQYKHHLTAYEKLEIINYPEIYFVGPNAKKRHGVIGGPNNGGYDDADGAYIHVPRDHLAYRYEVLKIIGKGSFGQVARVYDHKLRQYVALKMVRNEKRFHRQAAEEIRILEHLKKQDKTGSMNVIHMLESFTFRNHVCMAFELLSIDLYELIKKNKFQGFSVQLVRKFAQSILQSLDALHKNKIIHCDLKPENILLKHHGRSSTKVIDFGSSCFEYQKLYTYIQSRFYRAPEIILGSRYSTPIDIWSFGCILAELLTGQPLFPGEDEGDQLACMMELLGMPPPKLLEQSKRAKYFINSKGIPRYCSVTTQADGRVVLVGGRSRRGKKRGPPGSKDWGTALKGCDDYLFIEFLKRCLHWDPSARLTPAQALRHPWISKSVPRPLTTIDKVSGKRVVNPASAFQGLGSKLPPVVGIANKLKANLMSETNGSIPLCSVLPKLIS
Nature of the assay: Inhibition test on activity of DYRK family, mobility shift assay (MSA): DYRK3. The method, then: (§1) [Inhibition Test on Activity of DYRK Family (DYRK1A, DYRK1B, DYRK2, and DYRK3)]
(§2) The kinase activity was measured by mobility shift assay (MSA) method using QuickScout Screening Assist™ MSA (commercially available kit manufactured by Carna Biosciences, Inc.). The substrate of the kinase reaction used was an FITC-labeled DYRKtide peptide included in the kit. An assay buffer [20 mM HEPES, 0.01% Triton X-100™, 2 mM dithiothreitol, pH 7.5]was used to create a substrate mixture solution with a substrate (4 μM), MgCl2(20 mM), and ATP (DYRK1A: 100 μM; DYRK1B: 200 μM; DYRK2: 40 μM; and DYRK3: 20 μM). In addition, kinases (DYRK1A: manufactured by Carna Biosciences, Inc., Cat. No. 04-130; DYRK1B: manufactured by Carna Biosciences, Inc., Cat. No. 04-131; DYRK2; manufactured by Carna Biosciences, Inc., Cat. No. 04-132; and DYRK3; manufactured by Carna Biosciences, Inc., Cat. No. 04-133) were diluted with the assay buffer to prepare enzyme solutions (DYRK1A: 0.2 ng/μL; DYRK1B: 0.08 ng/μL; DYRK2: 0.04 ng/μL; and DYRK3: 0.25 ng/μL). The 10 mM solution of the test compound in DMSO was further diluted with DMSO to 10 levels of the concentration (0.00003 mM, 0.0001 mM, 0.0003 mM, 0.001 mM, 0.003 mM, 0.01 mM, 0.03 mM, 0.1 mM, 0.3 mM, and 1 mM), each of which was subjected to 25-fold dilution with the assay buffer to obtain a drug solution (4% DMSO solution). 5 μL of the drug solution or a control solution (4% DMSO-assay buffer), 5 μL of the substrate mixture solution, and 10 μL of the enzyme solution were mixed in the wells of a polypropylene 384-well plate and allowed to react at room temperature for 1 hour, and then the reaction was quenched by adding 60 μL of the termination buffer included in the kit. Subsequently, the quantities of the substrates (S) and the phosphorylated substrate (P) in the reaction solution were measured using LabChip EZ Reader II system (manufactured by Caliper Life Sciences) according to the protocol of the assay kit.
(§3) The heights of the peaks of the “substrate” and the “phosphorylated substrate” were expressed as S and P, respectively, and a blank containing the assay buffer instead of the enzyme solution was also measured.
(§4) The inhibition rate (%) of the test compound was calculated according to the following equation:
(§5) Inhibition rate (%)=(1−(C−A)/(B−A))×100 • wherein, A, B, and C represent P/(P+S) of the blank well, P/(P+S) of the control solution well, and P/(P+S) of the compound-containing well, respectively.
(§6) The IC50 value was calculated via a regression analysis of the inhibition rate and the test compound concentration (logarithmic value).
(§7) The inhibiting activities of representative compounds of the present invention are shown against DYRK1A, DYRK1B, DYRK2, and DYRK3 in Tables.

For assay [2], the target named is T2, DYRK1A (Homo sapiens, UniProt Q13627).
T2 construct: purchased Carna Biosciences, Inc. 04-130
In words: Inhibition test on activity of DYRK family, mobility shift assay (MSA): DYRK1A. The method, then:
as §1, §2, §3, §4, §5, §6

In assay [3] the target is T3, DYRK2 (Homo sapiens, UniProt Q92630).
T3 construct: purchased Carna Biosciences, Inc. 04-132
T3 sequence (Q92630 74-601 limits assumed): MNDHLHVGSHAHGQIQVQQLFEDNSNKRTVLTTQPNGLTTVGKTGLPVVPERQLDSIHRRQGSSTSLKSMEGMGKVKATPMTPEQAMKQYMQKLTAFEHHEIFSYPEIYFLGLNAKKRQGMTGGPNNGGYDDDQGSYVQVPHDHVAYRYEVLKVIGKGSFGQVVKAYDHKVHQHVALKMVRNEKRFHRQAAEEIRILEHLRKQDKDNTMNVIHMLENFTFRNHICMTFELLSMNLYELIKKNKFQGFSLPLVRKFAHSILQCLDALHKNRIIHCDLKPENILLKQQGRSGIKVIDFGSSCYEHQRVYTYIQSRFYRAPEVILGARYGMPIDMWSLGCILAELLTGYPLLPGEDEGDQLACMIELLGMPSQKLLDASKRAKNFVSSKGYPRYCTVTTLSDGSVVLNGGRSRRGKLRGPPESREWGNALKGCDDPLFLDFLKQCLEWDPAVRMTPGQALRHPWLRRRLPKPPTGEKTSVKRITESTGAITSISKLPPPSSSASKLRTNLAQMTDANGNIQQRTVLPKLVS
In words: Inhibition test on activity of DYRK family, mobility shift assay (MSA): DYRK2. The method, then: as §1, §2, §3, §4, §5, §6, §7

Where [4] appears, read: read-out: Inhibitory activity DYRK 3.
Setting [5] is: read-out: Inhibitory activity DYRK 1A.
The mark [6] stands for this setting: read-out: Inhibitory activity DYRK 2.
Setting [7] is: MSA, FITC-labeled DYRKtide peptide, ATP 20 μM, read-out: Inhibitory activity DYRK 3 (IC50 class).
[8] abbreviates: MSA, FITC-labeled DYRKtide peptide, ATP 100 μM, read-out: Inhibitory activity DYRK 1A (IC50 class).
Where [9] appears, read: MSA, FITC-labeled DYRKtide peptide, ATP 40 μM, read-out: Inhibitory activity DYRK 2 (IC50 class).

Like-named read-outs stand apart in the source and are kept apart here.

As for `O=C1N[C@H]2CCN(C3CC3)C[C@H]2N1c1nc2c3c(ccc2s1)OCC3` (racemic) [Example 98, rac-(3aR,7aS)-5-cyclopropyl-3-(7,8-dihydrofuro[3,2-e][1,3]benzothiazol-2-yl)octahydro-2H-imidazo[4,5-c]pyridin-2-one], the IC50 in assay [1] (setting [4]) is at least 1 µM; in assay [2] (setting [5]), below 0.01 µM; in assay [3] (setting [6]) it was at least 1 µM.
Turning to `C#CCN1CC[C@@H]2NC(=O)N(c3nc4c5c(ccc4s3)OCC5)[C@@H]2C1` (racemic) [Example 99, rac-(3aR,7aS)-3-(7,8-dihydrofuro[3,2-e][1,3]benzothiazol-2-yl)-5-(2-propyn-1-yl)octahydro-2H-imidazo[4,5-c]pyridin-2-one], the figures for the IC50 in assay [1] (setting [4]), in assay [2] (setting [5]) and in assay [3] (setting [6]) were 0.1 to 1 µM, below 0.01 µM and 0.1 to 1 µM, respectively.
Consider `C#CCN1C[C@@H]2NC(=O)N(c3nc4c5c(ccc4s3)OCC5)[C@@H]2C1` (racemic) [Example 102, rac-(3aR,6aS)-1-(7,8-dihydrofuro[3,2-e][1,3]benzothiazol-2-yl)-5-(2-propyn-1-yl)hexahydropyrrolo[3,4-d]imidazol-2(1H)-one], for which the results for the IC50 in assay [1] (setting [4]), in assay [2] (setting [5]) and in assay [3] (setting [6]) were 0.1 to 1 µM, 0.01 to 0.1 µM and at least 1 µM, respectively.
The like results for `N#CCN1C[C@@H]2NC(=O)N(c3nc4c5c(ccc4s3)OCC5)[C@@H]2C1` (racemic) [Example 103, rac-[(3aR,6aS)-1-(7,8-dihydrofuro[3,2-e][1,3]benzothiazol-2-yl)-2-oxohexahydropyrrolo[3,4-d]imidazol-5(1H)-yl]acetonitrile] were, in that order, 0.1 to 1 µM, 0.01 to 0.1 µM and at least 1 µM.
The like results for `O=C1N[C@H]2CCCN(C3CC3)C[C@H]2N1c1nc2c3c(ccc2s1)OCC3` (racemic) [Example 104, rac-(3aR,8aS)-5-cyclopropyl-3-(7,8-dihydrofuro[3,2-e][1,3]benzothiazol-2-yl)octahydroimidazo[4,5-c]azepin-2(1H)-one] were, in that order, 0.1 to 1 µM, below 0.01 µM and 0.1 to 1 µM.
On to `C#CCN1CCC[C@@H]2NC(=O)N(c3nc4c5c(ccc4s3)OCC5)[C@@H]2C1` (racemic) [Example 105, rac-(3aR,8aS)-3-(7,8-dihydrofuro[3,2-e][1,3]benzothiazol-2-yl)-5-(2-propyn-1-yl)octahydroimidazo[4,5-c]azepin-2(1H)-one], for which the IC50 was at least 1 µM in assay [1] (setting [4]), 0.01 to 0.1 µM in assay [2] (setting [5]) and at least 1 µM in assay [3] (setting [6]).
`N#CCN1CCC[C@@H]2NC(=O)N(c3nc4c5c(ccc4s3)OCC5)[C@@H]2C1` (racemic) [Example 106, rac-[(3aR,8aS)-3-(7,8-dihydrofuro[3,2-e][1,3]benzothiazol-2-yl)-2-oxooctahydroimidazo[4,5-c]azepin-5(1H)-yl]acetonitrile]: the values for the IC50 in assay [1] (setting [4]), in assay [2] (setting [5]) and in assay [3] (setting [6]) were 0.1 to 1 µM, 0.01 to 0.1 µM and at least 1 µM, respectively.
Turning to `O=C1N[C@H]2CCN(CC(F)(F)F)C[C@H]2N1c1nc2c3c(ccc2s1)OCC3` (racemic) [Example 107, rac-(3aR,7aS)-3-(7,8-dihydrofuro[3,2-e][1,3]benzothiazol-2-yl)-5-(2,2,2-trifluoroethyl)octahydro-2H-imidazo[4,5-c]pyridin-2-one], the IC50 in assay [1] (setting [4]) is at least 1 µM; in assay [2] (setting [5]), 0.01 to 0.1 µM; in assay [3] (setting [6]) it was at least 1 µM.
`O=C1N[C@H]2CCN(CC(F)F)C[C@H]2N1c1nc2c3c(ccc2s1)OCC3` (racemic) [Example 108, rac-(3aR,7aS)-5-(2,2-difluoroethyl)-3-(7,8-dihydrofuro[3,2-e][1,3]benzothiazol-2-yl)octahydro-2H-imidazo[4,5-c]pyridin-2-one]: the IC50 in assay [1] (setting [4]) was at least 1 µM; in assay [2] (setting [5]), 0.01 to 0.1 µM; in assay [3] (setting [6]) it was at least 1 µM.
As for `O=C1N[C@H]2CCOC[C@H]2N1c1nc2c3c(ccc2s1)OCC3` (racemic) [Example 120, rac-(3aR,7aR)-3-(7,8-dihydrofuro[3,2-e][1,3]benzothiazol-2-yl)hexahydropyrano[3,4-d]imidazol-2(3H)-one], the IC50 in assay [1] (setting [4]) was in the range of 0.1 to 1 µM; in assay [2] (setting [5]), 0.01 to 0.1 µM; in assay [3] (setting [6]), 0.1 to 1 µM.
Take `O=C1N[C@H]2COCC[C@H]2N1c1nc2c3c(ccc2s1)OCC3` (racemic) [Example 121, rac-(3aR,7aR)-1-(7,8-dihydrofuro[3,2-e][1,3]benzothiazol-2-yl)hexahydropyrano[3,4-d]imidazol-2(3H)-one]: the IC50 in assay [1] (setting [4]) lay in the range of 0.1 to 1 µM; in assay [2] (setting [5]), 0.01 to 0.1 µM; in assay [3] (setting [6]), 0.1 to 1 µM.
As to `O=C1N[C@H]2CCNC[C@H]2N1c1nc2c3c(ccc2s1)OCC3` (relative stereo) [Example 1, cis-3-(7,8-Dihydrofuro[3,2-e][1,3]benzothiazol-2-yl)octahydro-2H-imidazo[4,5-c]pyridin-2-one], the IC50 in assay [1] (setting [7]) was 0.1 to 1 µM; in assay [2] (setting [8]) it was 0.01 to 0.1 µM; in assay [3] (setting [9]), at least 1 µM.
`CC(C)N1CC[C@H]2NC(=O)N(c3nc4c5c(ccc4s3)OCC5)[C@H]2C1` (relative stereo) [Example 15, cis-3-(7,8-dihydrofuro[3,2-e][1,3]benzothiazol-2-yl)-5-(propan-2-yl)octahydro-2H-imidazo[4,5-c]pyridin-2-one]: the IC50 is at least 1 µM in assay [1] (setting [7]), 0.01 to 0.1 µM in assay [2] (setting [8]) and at least 1 µM in assay [3] (setting [9]).
Take `CN1CCC[C@@H]2NC(=O)N(c3nc4c5c(ccc4s3)OCC5)[C@@H]2C1` (relative stereo) [Example 17, cis-3-(7,8-dihydrofuro[3,2-e][1,3]benzothiazol-2-yl)-5-methyloctahydroimidazo[4,5-c]azepin-2(1H)-one]: the IC50 was at least 1 µM in assay [1] (setting [7]), 0.01 to 0.1 µM in assay [2] (setting [8]) and at least 1 µM in assay [3] (setting [9]).
